What was measured:
[1] = biological target: EGFR mutant L858R Ba/F3 cells (Homo sapiens, UniProt P00533, L858R, cells depend on it); test: Ba/F3 cell proliferation (Cell Titer Glo), EGFR L858R; format: cell-based, murine; conditions: 72 hours exposure, read-out: L858R BaF3 (μM), inhibitory activity against EGFR mutants
Method in brief: (§1)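 Ba/F3 cells stably expressing retrovirally transduced EGFR L858R, L858R/C797S or L858R/C775S, puromycin-selected. Compound exposure 72 hours in triplicate; viability by Cell Titer Glo ATP luminescence.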

[2] = biological target: EGFR L858R/C797S Ba/F3 cells (Homo sapiens, UniProt P00533, C797S/L858R, cells depend on it); test: Ba/F3 cell proliferation (Cell Titer Glo), EGFR L858R/C797S; format: cell-based, murine; conditions: 72 hours exposure, read-out: L858R/C797S (μM), inhibitory activity against EGFR mutants
Chain of EGFR L858R/C797S Ba/F3 cells (P00533 whole entry C797S/L858R): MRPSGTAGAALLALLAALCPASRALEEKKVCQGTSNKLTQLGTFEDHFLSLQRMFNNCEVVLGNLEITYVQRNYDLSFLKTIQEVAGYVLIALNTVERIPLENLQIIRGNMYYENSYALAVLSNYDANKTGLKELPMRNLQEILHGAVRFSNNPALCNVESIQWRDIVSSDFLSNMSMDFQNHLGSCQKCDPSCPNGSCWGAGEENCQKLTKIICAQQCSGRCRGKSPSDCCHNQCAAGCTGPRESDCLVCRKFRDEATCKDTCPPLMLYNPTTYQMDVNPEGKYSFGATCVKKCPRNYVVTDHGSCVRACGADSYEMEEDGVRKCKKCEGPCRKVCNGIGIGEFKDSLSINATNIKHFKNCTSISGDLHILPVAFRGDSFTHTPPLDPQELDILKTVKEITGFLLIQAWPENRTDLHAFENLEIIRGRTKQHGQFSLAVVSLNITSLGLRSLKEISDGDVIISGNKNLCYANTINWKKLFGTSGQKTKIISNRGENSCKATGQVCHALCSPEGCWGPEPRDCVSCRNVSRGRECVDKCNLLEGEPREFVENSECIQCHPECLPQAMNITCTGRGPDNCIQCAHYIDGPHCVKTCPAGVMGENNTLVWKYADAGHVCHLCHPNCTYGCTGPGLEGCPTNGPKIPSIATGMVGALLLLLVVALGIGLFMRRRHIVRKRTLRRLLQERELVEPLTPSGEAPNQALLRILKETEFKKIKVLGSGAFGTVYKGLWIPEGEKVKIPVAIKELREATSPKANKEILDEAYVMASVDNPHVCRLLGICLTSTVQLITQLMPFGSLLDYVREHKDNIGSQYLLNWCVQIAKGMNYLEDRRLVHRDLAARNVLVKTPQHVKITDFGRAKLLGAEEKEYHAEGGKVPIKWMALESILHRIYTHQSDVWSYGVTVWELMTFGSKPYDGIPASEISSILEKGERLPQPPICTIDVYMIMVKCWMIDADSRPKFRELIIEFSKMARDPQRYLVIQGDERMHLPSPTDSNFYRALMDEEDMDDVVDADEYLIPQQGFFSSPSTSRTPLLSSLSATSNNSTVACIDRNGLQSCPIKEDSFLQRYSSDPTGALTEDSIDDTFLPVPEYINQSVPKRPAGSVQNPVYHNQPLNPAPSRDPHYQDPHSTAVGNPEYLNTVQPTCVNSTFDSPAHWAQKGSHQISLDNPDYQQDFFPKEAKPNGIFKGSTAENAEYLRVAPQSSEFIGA
Method in brief: as §1

Chain of EGFR mutant L858R Ba/F3 cells (P00533 whole entry L858R): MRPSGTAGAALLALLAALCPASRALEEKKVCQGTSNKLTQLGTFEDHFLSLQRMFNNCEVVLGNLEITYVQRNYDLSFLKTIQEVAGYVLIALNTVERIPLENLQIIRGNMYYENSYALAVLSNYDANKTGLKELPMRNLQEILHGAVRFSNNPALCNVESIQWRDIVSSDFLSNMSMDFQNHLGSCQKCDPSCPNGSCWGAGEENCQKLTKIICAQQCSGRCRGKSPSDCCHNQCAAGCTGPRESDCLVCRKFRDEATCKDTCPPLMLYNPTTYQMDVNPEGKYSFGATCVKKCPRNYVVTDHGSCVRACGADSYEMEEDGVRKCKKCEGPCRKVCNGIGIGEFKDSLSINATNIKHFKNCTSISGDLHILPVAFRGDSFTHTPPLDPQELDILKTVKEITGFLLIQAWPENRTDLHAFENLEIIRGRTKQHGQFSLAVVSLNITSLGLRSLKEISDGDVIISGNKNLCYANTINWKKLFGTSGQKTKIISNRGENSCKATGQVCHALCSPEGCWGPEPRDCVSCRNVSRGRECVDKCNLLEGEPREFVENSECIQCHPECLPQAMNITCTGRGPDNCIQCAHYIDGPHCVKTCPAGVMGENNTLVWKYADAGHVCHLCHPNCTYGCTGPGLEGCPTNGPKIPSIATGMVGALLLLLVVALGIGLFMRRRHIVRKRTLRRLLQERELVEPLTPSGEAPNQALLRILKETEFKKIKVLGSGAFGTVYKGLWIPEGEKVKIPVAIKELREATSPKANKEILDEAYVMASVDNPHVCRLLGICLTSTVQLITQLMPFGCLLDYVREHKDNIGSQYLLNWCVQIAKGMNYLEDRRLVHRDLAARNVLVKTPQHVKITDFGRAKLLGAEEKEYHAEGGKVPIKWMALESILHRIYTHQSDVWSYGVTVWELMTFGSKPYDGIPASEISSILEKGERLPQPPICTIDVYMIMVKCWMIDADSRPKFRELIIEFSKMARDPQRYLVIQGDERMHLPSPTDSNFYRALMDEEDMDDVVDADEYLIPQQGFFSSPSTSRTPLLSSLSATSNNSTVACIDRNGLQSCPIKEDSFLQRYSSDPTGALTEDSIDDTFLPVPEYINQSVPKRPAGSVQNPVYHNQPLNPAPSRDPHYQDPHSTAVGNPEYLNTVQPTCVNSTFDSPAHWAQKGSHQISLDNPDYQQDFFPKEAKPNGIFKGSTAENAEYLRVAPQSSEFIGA

Compound	GI50 [1]	GI50 [2]
C=CC(=O)N1CCN(c2cc3cnc(Nc4ccc(N5CCN(C)CC5)cc4)nc3n(C)c2=O)c2cccc(N)c21 [Compound 065, 6-(5-amino-4-prop-2-enoyl-2,3-dihydroquinoxalin-1-yl)-8-methyl-2-[4-(4-methylpiperazin-1-yl)anilino]pyrido[2,3-d]pyrimidin-7-one]	≤ 0.25 µM	≤ 0.25 µM
C=CC(=O)N1CCN(c2cc3cnc(Nc4ccc(OCCN(C)C)cc4)nc3n(C)c2=O)c2cccc(O)c21 [Compound 066, 2-[4-[2-(dimethylamino)ethoxy]anilino]-6-(5-hydroxy-4-prop-2-enoyl-2,3-dihydroquinoxalin-1-yl)-8-methyl-pyrido[2,3-d]pyrimidin-7-one]	≤ 0.25 µM	≤ 0.25 µM
C=CC(=O)N1CCN(c2cc3cnc(Nc4ccc(OCCN(C)C)cc4)nc3n(-c3cccnc3)c2=O)c2cccc(C)c21 [Compound 067]	≤ 0.25 µM	≤ 0.25 µM
C=CC(=O)N1CCN(c2cc3cnc(Nc4ccc(OCCN(C)C)cc4OC)nc3n(C)c2=O)c2cccc(C)c21 [Compound 068]	≤ 0.25 µM	≤ 0.25 µM
C=CC(=O)N1CCN(c2cc3cnc(Nc4ccccc4)nc3n([C@H]3C[C@@H](O)C3)c2=O)c2cccc(C)c21 [Compound 069]	≤ 0.25 µM	≤ 0.25 µM
C=CC(=O)N1CCN(c2cc3cnc(Nc4ccccc4)nc3n([C@H]3C[C@H](O)C3)c2=O)c2cccc(C)c21 [Compound 070]	≤ 0.25 µM	≤ 0.25 µM
C=CC(=O)N1CCN(c2cc3cnc(Nc4ccc(OCCN(C)C)cc4)nc3n(C3CC(OC)C3)c2=O)c2cccc(C)c21 (stereo not drawn) [Compound 071, 2-[4-[2-(dimethylamino)ethoxy]anilino]-8-(3-methoxycyclobutyl)-6-(5-methyl-4-prop-2-enoyl-2,3-dihydroquinoxalin-1-yl)pyrido[2,3-d]pyrimidin-7-one]	≤ 0.25 µM	≤ 0.25 µM
C=CC(=O)N1CCN(c2cc3cnc(Nc4ccc(OCCN(C)C)cc4)nc3n(C3CCOC3)c2=O)c2cccc(C)c21 (stereo not drawn) [Compound 072, 2-[4-[2-(dimethylamino)ethoxy]anilino]-6-(5-methyl-4-prop-2-enoyl-2,3-dihydroquinoxalin-1-yl)-8-tetrahydrofuran-3-yl-pyrido[2,3-d]pyrimidin-7-one]	≤ 0.25 µM	≤ 0.25 µM
C=CC(=O)N1CCN(c2cc3cnc(Nc4cc5n(c4)CCN(C)C5=O)nc3n(C)c2=O)c2cccc(C)c21 [Compound 073, 8-methyl-2-[(2-methyl-1-oxo-3,4-dihydropyrrolo[1,2-a]pyrazin-7-yl)amino]-6-(5-methyl-4-prop-2-enoyl-2,3-dihydroquinoxalin-1-yl)pyrido[2,3-d]pyrimidin-7-one]	≤ 0.25 µM	≤ 0.25 µM
C=CC(=O)N1CCN(c2cc3cnc(Nc4ccc(OCCN(C)C)cc4)nc3n(C)c2=O)c2cccc(OC)c21 [Compound 074]	≤ 0.25 µM	≤ 0.25 µM
C=CC(=O)N1CCN(c2cc3cnc(Nc4ccc(OCCN(C)C)c(F)c4)nc3n(C)c2=O)c2cccc(C)c21 [Compound 075]	≤ 0.25 µM	≤ 0.25 µM
C=CC(=O)N1CCN(c2cc3cnc(Nc4ccc(OC5CN(C)C5)cc4)nc3n(C)c2=O)c2cccc(C)c21 [Compound 076]	≤ 0.25 µM	≤ 0.25 µM
C=CC(=O)N1CCN(c2cc3cnc(Nc4ccc(OCCN(C)C)cc4)nc3n(C3CC(O)C3)c2=O)c2cccc(OC)c21 (stereo not drawn) [Compound 077]	≤ 0.25 µM	≤ 0.25 µM
C=CC(=O)N1CCN(c2cc3cnc(Nc4ccc(OCCN(C)C)cc4)nc3n(C)c2=O)c2cc(O)ccc21 [Compound 078, 2-[4-[2-(dimethylamino)ethoxy]anilino]-6-(7-hydroxy-4-prop-2-enoyl-2,3-dihydroquinoxalin-1-yl)-8-methyl-pyrido[2,3-d]pyrimidin-7-one]	≤ 0.25 µM	≤ 0.25 µM
C=CC(=O)N1CCN(c2cc3cnc(N)nc3n(-c3ccc(OCCN(C)C)nc3)c2=O)c2cccc(C)c21 [Compound 079]	≤ 0.25 µM	0.5 to 2.5 µM
C=CC(=O)N1CCN(c2cc3cnc(N)nc3n(-c3ccc(OCCN(C)C)cc3)c2=O)c2cccc(C)c21 [Compound 080, 2-amino-8-[4-[2-(dimethylamino)ethoxy]phenyl]-6-(5-methyl-4-prop-2-enoyl-2,3-dihydroquinoxalin-1-yl)pyrido[2,3-d]pyrimidin-7-one]	≤ 0.25 µM	≤ 0.25 µM
C=CC(=O)N1CCN(c2cc3cnc(NC)nc3n(-c3ccc(OCCN(C)C)cc3)c2=O)c2cccc(C)c21 [Compound 081, 8-[4-[2-(dimethylamino)ethoxy]phenyl]-2-(methylamino)-6-(5-methyl-4-prop-2-enoyl-2,3-dihydroquinoxalin-1-yl)pyrido[2,3-d]pyrimidin-7-one]	≤ 0.25 µM	≤ 0.25 µM
C=CC(=O)N1CCN(c2cc3cnc(NC4CC4)nc3n(-c3ccc(OCCN(C)C)cc3)c2=O)c2cccc(C)c21 [Compound 082, 2-(cyclopropylamino)-8-[4-[2-(dimethylamino)ethoxy]phenyl]-6-(5-methyl-4-prop-2-enoyl-2,3-dihydroquinoxalin-1-yl)pyrido[2,3-d]pyrimidin-7-one]	≤ 0.25 µM	≤ 0.25 µM
C=CC(=O)N1CCN(c2cc3cnc(NC4CC4)nc3n(C)c2=O)c2cccc(C)c21 [Compound 083, 2-(cyclopropylamino)-8-methyl-6-(5-methyl-4-prop-2-enoyl-2,3-dihydroquinoxalin-1-yl)pyrido[2,3-d]pyrimidin-7-one]	0.5 to 2.5 µM	0.5 to 2.5 µM
C=CC(=O)N1CCN(c2cc3cnc(Nc4ccccc4)nc3n(C3CC(OC)C3)c2=O)c2cccc(C)c21 (stereo not drawn) [Compound 084, 2-anilino-8-(3-methoxycyclobutyl)-6-(5-methyl-4-prop-2-enoyl-2,3-dihydroquinoxalin-1-yl)pyrido[2,3-d]pyrimidin-7-one]	≤ 0.25 µM	≤ 0.25 µM
C=CC(=O)N1CCN(c2cc3cnc(Nc4cc5n(c4)CCN(C)C5)nc3n(C)c2=O)c2cccc(C)c21 [Compound 085, 8-methyl-2-[(2-methyl-3,4-dihydro-1H-pyrrolo[1,2-a]pyrazin-7-yl)amino]-6-(5-methyl-4-prop-2-enoyl-2,3-dihydroquinoxalin-1-yl)pyrido[2,3-d]pyrimidin-7-one]	≥ 2.5 µM	≥ 2.5 µM
C=CC(=O)N1CCN(c2cc3cnc(N)nc3n([C@H]3CC[C@H](OC)CC3)c2=O)c2cccc(C)c21 [Compound 086, 2-amino-8-(4-methoxycyclohexyl)-6-(5-methyl-4-prop-2-enoyl-2,3-dihydroquinoxalin-1-yl)pyrido[2,3-d]pyrimidin-7-one]	≤ 0.25 µM	≤ 0.25 µM
C=CC(=O)N1CCN(c2cc3cnc(N)nc3n([C@H]3CC[C@](C)(O)CC3)c2=O)c2cccc(C)c21 [Compound 087, 6-(4-acryloyl-5-methyl-3,4-dihydroquinoxalin-1 (2H)-yl)-2-amino-8-((1r,4r)-4-hydroxy-4-methylcyclohexyl)pyrido[2,3-d]pyrimidin-7 (8H)-one]	≤ 0.25 µM	≤ 0.25 µM
C=CC(=O)N1CCN(c2cc3cnc(N)nc3n([C@H]3CC[C@@](C)(O)CC3)c2=O)c2cccc(C)c21 [Compound 088, 6-(4-acryloyl-5-methyl-3,4-dihydroquinoxalin-1 (2H)-yl)-2-amino-8-((1s,4s)-4-hydroxy-4-methylcyclohexyl)pyrido[2,3-d]pyrimidin-7 (8H)-one]	≤ 0.25 µM	≤ 0.25 µM

Reference: patent US20250221998A1, “DISCOVERY OF COVALENT EGFR INHIBITOR THROUGH CYSTEINE 775” (Dana-Farber Cancer Institute, Inc., priority 2022, published 2025)
